Test results published in the supplement of paper PMC10307832.

Legend:
Experiment in all cases: relative viability (nuclei count vs DMSO), 5 days (fraction); higher = more cells survive
Venetoclax + Palbociclib = compound: CC1(C)CCC(CN2CCN(c3ccc(C(=O)NS(=O)(=O)c4ccc(NCC5CCOCC5)c([N+](=O)[O-])c4)c(Oc4cnc5[nH]ccc5c4)c3)CC2)=C(c2ccc(Cl)cc2)C1 [Venetoclax] + CC(=O)c1c(C)c2cnc(Nc3ccc(N4CCNCC4)cn3)nc2n(C2CCCC2)c1=O [Palbociclib] (partner 0.5 µM)
How it was run: (§1)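 Lung cancer cell lines were seeded in 1536-well plates and dosed by pin tool the next day, with either a single drug or a fixed anchor-drug dose combined with five library-drug doses (not always all listed) spaced in √10 steps. Five days later, one step fixed the cells and stained their nuclei (final 0.05% Triton X-100, 1% formaldehyde, 1 ug/ml Hoechst), and nuclei were counted on 4× images. Relative viability is the nuclei count in treated wells divided by the count in vehicle wells, and each value is the median of duplicate plates.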

Selumetinib + Decitabine = compound: Cn1cnc2c(F)c(Nc3ccc(Br)cc3Cl)c(C(=O)NOCCO)cc21 [Selumetinib] + Nc1ncn([C@H]2C[C@H](O)[C@@H](CO)O2)c(=O)n1 [Decitabine] (partner 2 µM)
How it was run: as §1

Venetoclax + Pemetrexed = compound: CC1(C)CCC(CN2CCN(c3ccc(C(=O)NS(=O)(=O)c4ccc(NCC5CCOCC5)c([N+](=O)[O-])c4)c(Oc4cnc5[nH]ccc5c4)c3)CC2)=C(c2ccc(Cl)cc2)C1 [Venetoclax] + Nc1nc2[nH]cc(CCc3ccc(C(=O)N[C@@H](CCC(=O)O)C(=O)O)cc3)c2c(=O)[nH]1 [Pemetrexed] (partner 0.2 µM)
How it was run: as §1

Selumetinib + Alpelisib = compound: Cn1cnc2c(F)c(Nc3ccc(Br)cc3Cl)c(C(=O)NOCCO)cc21 [Selumetinib] + Cc1nc(NC(=O)N2CCC[C@H]2C(N)=O)sc1-c1ccnc(C(C)(C)C(F)(F)F)c1 [Alpelisib] (partner 2 µM)
How it was run: as §1

Row | Cell Line | relative viability (Venetoclax + Palbociclib; first compound 0.01 µM) | relative viability (Venetoclax + Palbociclib; first compound 0.03162 µM) | relative viability (Venetoclax + Palbociclib; first compound 0.1 µM) | relative viability (Venetoclax + Palbociclib; first compound 0.3162 µM) | relative viability (Venetoclax + Palbociclib; first compound 1 µM) | relative viability (Selumetinib + Decitabine; first compound 0.02 µM) | relative viability (Selumetinib + Decitabine; first compound 0.06325 µM) | relative viability (Selumetinib + Decitabine; first compound 0.2 µM) | relative viability (Selumetinib + Decitabine; first compound 0.6325 µM) | relative viability (Venetoclax + Pemetrexed; first compound 0.01 µM) | relative viability (Venetoclax + Pemetrexed; first compound 0.03162 µM) | relative viability (Venetoclax + Pemetrexed; first compound 0.1 µM) | relative viability (Venetoclax + Pemetrexed; first compound 0.3162 µM) | relative viability (Venetoclax + Pemetrexed; first compound 1 µM) | relative viability (Selumetinib + Alpelisib; first compound 0.02 µM) | relative viability (Selumetinib + Alpelisib; first compound 0.06325 µM) | relative viability (Selumetinib + Alpelisib; first compound 0.2 µM) | relative viability (Selumetinib + Alpelisib; first compound 0.6325 µM)
1 | LC-2-ad | 0.456 | 0.532 | 0.465 | 0.491 | 0.508 | 0.73 | 0.817 | 0.781 | 0.776 | 0.283 | 0.27 | 0.256 | 0.262 | 0.259 | 0.862 | 0.82 | 0.66 | 0.848
2 | NCI-H460 | 0.158 | 0.294 | 0.121 | 0.216 | 0.144 | 0.432 | 0.484 | 0.402 | 0.326 | 0.062 | 0.0571 | 0.0565 | 0.0577 | 0.064 | 0.464 | 0.21 | 0.172 | 0.137
3 | NCI-H441 | 0.218 | 0.27 | 0.241 | 0.2 | 0.18 | 0.244 | 0.224 | 0.207 | 0.268 | 0.274 | 0.271 | 0.243 | 0.253 | 0.244 | 0.775 | 0.754 | 0.656 | 0.647
4 | LCLC-97TM1 | 0.231 | 0.217 | 0.202 | 0.208 | 0.212 | 0.258 | 0.217 | 0.296 | 0.197 | 0.165 | 0.182 | 0.167 | 0.163 | 0.153 | 0.275 | 0.25 | 0.259 | 0.185
5 | COR-L23 | 0.326 | 0.283 | 0.184 | 0.286 | 0.282 | 0.438 | 0.418 | 0.451 | 0.444 | 0.181 | 0.177 | 0.189 | 0.199 | 0.197 | 0.91 | 0.825 | 0.793 | 0.654
6 | NCI-H2228 | 0.708 | 0.776 | 0.566 | 0.687 | 0.746 | – | – | – | – | 0.341 | 0.331 | 0.36 | 0.272 | 0.343 | 0.72 | 0.608 | 0.416 | 0.411
7 | LCLC-103H | 0.518 | 0.479 | 0.491 | 0.437 | 0.428 | 0.697 | 0.715 | 0.71 | 0.706 | 0.447 | 0.432 | 0.448 | 0.43 | 0.447 | 0.851 | 0.917 | 0.841 | 0.874
8 | NCI-H1993 | 0.643 | 0.652 | 0.717 | 0.616 | 0.541 | 0.571 | 0.615 | 0.549 | 0.604 | 0.565 | 0.579 | 0.599 | 0.57 | 0.668 | 0.681 | 0.584 | 0.769 | 0.702
9 | NCI-H1793 | 0.296 | 0.304 | 0.306 | 0.327 | 0.27 | 0.494 | 0.527 | 0.468 | 0.401 | 0.944 | 0.976 | 0.732 | 0.799 | 0.713 | 0.786 | 0.646 | 0.41 | 0.452
10 | NCI-H2087 | 0.257 | 0.257 | 0.235 | 0.249 | 0.188 | 0.267 | 0.253 | 0.249 | 0.213 | 0.7 | 0.65 | 0.785 | 0.707 | 0.668 | 0.777 | 0.65 | 0.515 | 0.306
11 | NCI-H727 | 0.655 | 0.586 | 0.658 | 0.82 | 0.651 | 0.762 | 0.578 | 0.606 | 0.583 | – | – | – | – | – | 0.309 | 0.225 | 0.253 | 0.202
12 | ChaGo-K-1 | 0.992 | 0.986 | 0.867 | 0.905 | 0.899 | 0.544 | 0.539 | 0.48 | 0.532 | 0.257 | 0.26 | 0.255 | 0.26 | 0.263 | – | – | – | –
13 | NCI-H522 | 0.929 | 0.95 | 0.925 | 0.816 | 0.968 | 0.837 | 0.585 | 0.692 | 0.7 | 1.13 | 1.01 | 0.879 | 1.19 | 0.759 | – | – | – | –
14 | NCI-H1648 | – | 0.283 | 0.255 | 0.249 | 0.225 | – | 0.447 | 0.477 | 0.673 | – | 0.774 | 0.64 | 0.626 | 0.718 | – | – | – | –
15 | NCI-H1650 | 0.315 | 0.364 | 0.323 | 0.419 | 0.306 | 0.392 | 0.353 | 0.424 | 0.39 | 0.343 | 0.361 | 0.405 | 0.431 | 0.356 | – | – | – | –
16 | NCI-H2342 | 0.564 | 0.491 | 0.56 | 0.508 | 0.52 | 0.778 | 0.716 | 0.727 | 0.638 | 0.872 | 0.784 | 0.747 | 0.738 | 0.717 | – | – | – | –
17 | NCI-H1299 | – | – | – | – | – | – | – | – | – | – | – | – | – | – | 1.04 | 1.03 | 1.03 | 0.697
18 | SW 900 | 0.506 | 0.516 | 0.497 | 0.552 | 0.498 | 0.43 | 0.409 | 0.441 | 0.504 | 0.478 | 0.51 | 0.465 | 0.499 | 0.489 | – | – | – | –
19 | A549 | – | – | – | – | – | 0.305 | 0.227 | 0.198 | 0.267 | – | – | – | – | – | 0.675 | 0.438 | 0.311 | 0.296
20 | NCI-H596 | – | – | – | – | – | 0.927 | 0.936 | 0.922 | 0.83 | 0.473 | 0.495 | 0.461 | 0.488 | 0.486 | 0.548 | 0.43 | 0.353 | 0.162
21 | ABC-1 | 0.802 | 0.796 | 0.564 | 0.618 | 0.797 | 1.01 | 1.08 | 1.08 | 1.02 | – | – | – | – | – | 0.826 | 0.743 | 0.852 | 0.643
